Data published in patent US12492211B2, “Crystalline form of nitrogen-containing tricyclic compound and use thereof” (SUNSHINE LAKE PHARMA CO., LTD., priority 2019, dated 2025).

Tests used:
[1] = Stability test: high-humidity test (25° C., RH 90%±5%); format: physicochemical; conditions: for Appearance / Purity (%): High-humidity 25° C., RH 90%±5%; for Purity (%): HPLC
Protocol: (§1) (2) High-humidity test: A batch of the test sample was taken into a flat weighing bottle, divided into ≤5 mm thick thin layer. The sample was placed at 25° C., RH 90%±5% for 30 days. The sample was then sampled at day 5, day 10 and day 30, and the change of the sample's color was observed. The purity of the sample was detected by HPLC, and the structure of the sample was analyzed by X-ray powder diffraction, the change of X-ray powder diffraction in high humidity test was […] as shown in FIG. 5.

[2] = Stability test: high-temperature test (60° C.); format: physicochemical; conditions: for Purity (%): HPLC
Protocol: as §1, with “(1) High-temperature” for “(2) High-humidity”, “60° C.” for “25° C., RH 90%±5%”, “temperature” for “humidity”, “4.” for “5.”

[3] = Stability test: light test (4500±500lx, UV); format: physicochemical; conditions: for Appearance / Purity (%): Light 4500±500lx, UV; for Purity (%): HPLC
Protocol: as §1, with “(3) Light” for “(2) High-humidity”, “placed in an opened light box (with UV)” for “placed”, “the illuminance 4500±500lx, UV light ≥0.7 w/m^2” for “25° C., RH 90%±5%”, “13” for “10”, “light” for “high humidity”, “6.” for “5.”

[4] = Pharmacokinetic test in Beagle dogs, oral capsules; format: in vivo; conditions: 5 mg/kg oral
Protocol: The crystal form A of compound having Formula (I) named 2-((5-cyclopropyl-3-(2,6-dichlorophenyl)isoxazol-4-yl)methoxy)-10H-spiro[benzo[6,7]oxepino[3,2-b]pyridine-11,1′-cyclopropane]-7-carboxylic acid was filled into capsules, which was for oral administration.
8-12 kg Male Beagle dogs were given 5 mg/kg test sample orally, with 3 animals in each group. Blood samples were taken at time points of 0.25, 0.5, 1.0, 2.0, 4.0, 6.0, 8.0, 12 and 24 h. Standard curve was plotted based on concentrations of the samples in a suitable range, the concentration of the test sample in the plasma sample was measured and quantified by AB SCIEX API4000 LC-MS/MS at MRM mode. Pharmacokinetic parameters were calculated according to drug concentration-time curve using a noncompartmental model by WinNonLin 6.3 software.

[5] = Hygroscopicity test by dynamic moisture adsorption (DVS); format: physicochemical; conditions: relative humidity of 80%
Protocol: The description of the hygroscopic feature and the definition of the hygroscopic weight gain (Chinese Pharmacopoeia 2015 edition, Appendix 9103 Guidelines for Drug Hygroscopicity Tests, experimental conditions: 25° C.±1° C., 80%±2% relative humidity) are as described in the table below.
An appropriate amount of the test sample was taken and the hygroscopicity of the test sample was tested by dynamic moisture adsorption device. […] That is, the crystal form A of the invention is not easily deliquescent under the influence of high humidity.

[6] = High-temperature 60° C., 5 days
[7] = High-temperature 60° C., 10 days
[8] = High-temperature 60° C., 30 days
[9] = dog, plasma, male Beagle dogs, capsules

O=C(O)c1ccc2c(c1)Oc1ccc(OCc3c(-c4c(Cl)cccc4Cl)noc3C3CC3)nc1C1(CC1)C2 [Crystal form A, 2-((5-cyclopropyl-3-(2,6-dichlorophenyl)isoxazol-4-yl)methoxy)-10H-spiro[benzo[6,7]oxepino[3,2-b]pyridine-11,1′-cyclopropane]-7-carboxylic acid]
Appearance ([1]; 5 days): White | Purity (%) ([1]; 5 days): 99.55% | Appearance ([1]; 10 days): White | Purity (%) ([1]; 10 days): 99.39% | Appearance ([1]; 30 days): White | Purity (%) ([1]; 30 days): 99.42% | changes of appearance, chemical purity and crystal form ([1]; high-humidity, up to 30 days): no obvious changes | Appearance ([2]; 0 days (initial sample)): White | Purity (%) ([2]; 0 days (initial sample)): 99.44% | Appearance [2, 6]: White | Purity (%) [2, 6]: 99.33% | Appearance [2, 7]: White | Purity (%) [2, 7]: 99.35% | Appearance [2, 8]: White | Purity (%) [2, 8]: 99.45% | changes of appearance, chemical purity and crystal form ([2]; high-temperature, up to 30 days): no obvious changes | Appearance ([3]; 5 days): White | Purity (%) ([3]; 5 days): 99.53% | Appearance ([3]; 13 days): White | Purity (%) ([3]; 13 days): 99.31% | Appearance ([3]; 30 days): White | Purity (%) ([3]; 30 days): 99.43% | changes of appearance, chemical purity and crystal form ([3]; light, up to 30 days): no obvious changes | exposure in Beagle dogs ([4]; conclusion in words): relatively large exposure | AUC(0-t) [4, 9]: 237 ng·h/mL | Cmax [4, 9]: 86 ng/mL | Tmax ([4]; male Beagle dogs, capsules): 40 min | hygroscopic feature according to the criterion for the hygroscopic weight gain [5]: no or almost none hygroscopicity | weight gain after equilibrium [5]: less than 0.1%
